Experimental data: patent publication US20030083271A1, “Topoisomerase I selective cytotoxic sugar derivatives of indolopyrrolocarbazoles” (priority 2001, published 2003)
Marks after values point to notes of the source that are not given here.

Legend:
[1] = tested on: HT-29 colon carcinoma; experiment: In vivo antitumor activity, HT-29 xenograft; set-up: species or system Balb/c athymic (nude) female mice; conditions: for LCK (gross log cell kill): HT29 sc xenograft in nude mice, at optimal or maximum tolerated dose, CPT-11 run as comparator in same experiment; for MTD (optimal or maximum tolerated dose level tested): HT29 xenograft experiment, nude mice
Method: Compounds: Examples of this invention were administered in an appropriate vehicle such as cremophor/ethanol/water (10%/10%/80%), in normal saline, water/carboxymethylcellulose vehicle.
All compounds were tested at several dose levels, with attempts each time to achieve their maximum tolerated dose (MTD). […] The optimal dose (OD) was the dose producing the best therapeutic effect, and was usually, but not always, synonymous with the MTD.
Tumors: Human tumors (HCT-116 and HT-29 colon carcinomas) were grown as xenografts in Balb/c athymic (nude) female mice. Antitumor assays. All tumors were implanted subcutaneously (sc) as 3-4mm fragments using a 13 gauge trochar. There were generally eight mice per treatment and control group. When treatment was delayed until tumors had obtained a certain size (weight), referred to as a staged tumor experiment (expt.), tumor-bearing mice were selected so that their tumors fell within a limited range of sizes for the particular expt.
Tumors were measured by calipers, and tumor weight calculated by the formula length (mm) times (×) width (mm)^2/2=tumor weight (mg). The median time (in days) to reach a predetermined tumor target size (for example, 500 mg) for untreated, control (C) mice relative to the time to reach the same target size for treated (T) mice, was calculated as a T-C value. T-C values were divided by the tumor volume doubling time (TVDT), and multiplied by 3.32, to yield a gross log cell kill (LCK) value, [i.e., (T-C)/TVDT×3.32=LCK].
A mouse was considered cured if there was no palpable tumor after a period of time equal to 10×TVDT post-reatment (Rx).

[2] = biological target: T1, purified human topoisomerase I (Homo sapiens, UniProt P11387); experiment: Topoisomerase I-mediated single strand DNA break induction (in vitro); assay type: biochemical; conditions: median effect concentration for inducing single-strand breaks in the DNA substrate; read-out: Topo I EC50
T1 construct: purchased Topogen
T1 sequence (P11387 1-765): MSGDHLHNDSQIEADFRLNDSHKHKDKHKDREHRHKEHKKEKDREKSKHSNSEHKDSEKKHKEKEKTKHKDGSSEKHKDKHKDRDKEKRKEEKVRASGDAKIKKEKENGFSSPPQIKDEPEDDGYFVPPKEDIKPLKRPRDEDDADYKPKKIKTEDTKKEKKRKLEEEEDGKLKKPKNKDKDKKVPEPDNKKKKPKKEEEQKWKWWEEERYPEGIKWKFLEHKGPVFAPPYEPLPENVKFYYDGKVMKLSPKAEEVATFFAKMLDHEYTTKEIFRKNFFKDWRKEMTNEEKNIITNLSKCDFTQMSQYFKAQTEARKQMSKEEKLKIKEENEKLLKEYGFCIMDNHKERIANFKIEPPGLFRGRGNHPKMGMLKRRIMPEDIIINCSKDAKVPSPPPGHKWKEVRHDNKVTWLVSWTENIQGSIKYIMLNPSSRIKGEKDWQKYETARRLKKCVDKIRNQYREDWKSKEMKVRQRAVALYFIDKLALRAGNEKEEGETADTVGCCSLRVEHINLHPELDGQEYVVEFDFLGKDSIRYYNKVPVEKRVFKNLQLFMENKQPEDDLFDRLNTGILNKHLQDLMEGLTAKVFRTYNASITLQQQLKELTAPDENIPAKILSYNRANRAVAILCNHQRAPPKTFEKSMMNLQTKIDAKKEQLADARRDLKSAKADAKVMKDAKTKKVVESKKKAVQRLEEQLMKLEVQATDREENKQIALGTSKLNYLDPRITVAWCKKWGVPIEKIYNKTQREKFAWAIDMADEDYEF
How it was run: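 Supercoiled PM2 DNA incubated with compound dilutions and 1000 units purified human topoisomerase I, 30 min at 37° C; stopped with SDS/proteinase K. Products separated on ethidium-stained agarose gel, quantified by densitometry as % single-strand breaks; EC50 interpolated from dose-effect curve.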

| SMILES | LCK (gross log cell kill) [1] | MTD (optimal or maximum tolerated dose level tested) [1] [mpkpi] | EC50 [2] [nM] |
| --- | --- | --- | --- |
| O=C1NC(=O)c2c1c1c3cc(F)c(F)cc3sc1c1c2c2cc(F)c(F)cc2n1[C@@H]1O[C@H](CO)[C@@H](F)[C@H](O)[C@H]1O [Example 33, 12-[4-Deoxy-4-fluoro-β-D-glucopyranosyl]-2,3,9,10-tetrafluoro-5H,13H-benzo[b]thienyl[2,3-a]pyrrolo[3,4-c]carbazole-5,7(6H)-dione] | >2.3^b | 11 | 50 |
| O=C1NC(=O)c2c1c1c3cc(F)ccc3[nH]c1c1c2c2cc(F)ccc2n1[C@@H]1O[C@H](CF)[C@@H](F)[C@H](O)[C@H]1O [Example 27] | 1.9^a | 11 | 150 |
| O=C1NC(=O)c2c1c1c3cc(F)c(F)cc3sc1c1c2c2cc(F)c(F)cc2n1[C@@H]1O[C@H](CF)[C@@H](F)[C@H](O)[C@H]1O [Example 26, 12-[4,6-Difluoro-4,6-dideoxy-β-D-glucopyranosyl]-2,3,9,10-tetrafluoro-5H, 13H-benzo[b]thienyl[2,3-a]pyrrolo[3,4-c]carbazole-5,7(6H)-dione] | 1.4 | >9 | 130 |
| O=C1NC(=O)c2c1c1c3cc(F)c(F)cc3sc1c1c2c2cc(F)c(F)cc2n1[C@@H]1O[C@H](CF)C[C@H](O)[C@H]1O [Example 9, 12-[4,6-Dideoxy-6-fluoro-β-D-glucopyranosyl]-2,3,9,10-tetrafluoro-5H, 13H-benzo[b]thienyl[2,3-a]pyrrolo[3,4-c]carbazole-5,7(6H)-dione] | >1.4 | >22 | 230 |
| O=C1NC(=O)c2c1c1c3cc(F)ccc3[nH]c1c1c2c2cc(F)ccc2n1[C@@H]1O[C@H](CO)[C@@H](F)[C@H](O)[C@H]1O [Example 24, 12-[4-Deoxy-4-fluoro-β-D-glucopyranosyl]-3,9-difluoro-12,13-dihydro-5H-indolo[2,3-a]pyrrolo[3,4-c]carbazole-5,7(6H)-dione] | 2.1 | 15 | 20 |
